From article PMC9758846, “Dinuclear and mononuclear metal(II) polypyridyl complexes against drug-sensitive and drug-resistant Plasmodium falciparum and their mode of action” (Malaria Journal, 2022) come the findings set out here.

Series [1] can be described thus: Solution stability by molar conductivity and visible absorptivity. The note with it: 24, 48 and 72 h; room temperature. Format: physicochemical. The method, then:
Series of 10 mM stock solutions were prepared by dissolving the compounds in their respective solvents: phen and 4,4′-bipy in 95% ethanol; Cu(NO3)2·3H2O, Zn(NO3)2·6H2O, (1) and (2) in double distilled water; (3) and (4) in DMSO. All the stock solutions were further diluted with double distilled water to obtain 10 mL of 30 µM, 1 mM and 5 mM for their respective studies, viz. 30 µM for ultraviolet spectral studies, 1 mM for conductivity measurement and 5 mM for visible spectral studies. For the water-DMSO solutions of both complexes (3) and (4), the 30 µM, 1 mM and 5 mM solutions have […], 10% DMSO and 50% DMSO respectively. The absorbance at λmax and conductance were of the aqueous solutions were measured at 0, 24, 48 and 72 h. The molar absorptivity and molar conductivity of the metal(II) complex solutions and their precursors were then calculated.

The subject of series [2] is Pf3D7. In words: JC-1 mitochondrial membrane potential study. The note with it: JC-1 red/green fluorescence ratio. The class given is cell-based, Plasmodium falciparum. The method, then: (§1) Mitochondrial membrane potential was investigated using a BD™ MitoScreen Flow Cytometry Mitochondrial Membrane Potential Detection JC-1 kit. In brief, parasitized red blood cells were treated with test compounds at desired concentrations for 12 and 48 h at 37 °C. After incubation, packed cells were stained as per manufacturer’s instructions. Dissipation in Δψm was measured by calculating the ratio between the red and green fluorescence.

Series [3] relates to Pf5202. In words: JC-1 mitochondrial membrane potential study. The class given is cell-based, Plasmodium falciparum. The note with it: JC-1 red/green fluorescence ratio. The protocol: as §1
The nature of series [4]: PNDA assay of •OH radicals from reaction with H2O2. As to conditions: 30 µM compound with excess H2O2. The protocol:
A previously reported spectrometric assay using PNDA was used to quantify the amount of reactive oxygen species (ROS), viz. •OH radicals, produced by the reaction of metal(II) complexes with hydrogen peroxide in borate buffer at pH 7.5 [24–26]. The percentage of PNDA bleaching and the concentration of •OH produced were determined.

Series [5] relates to B+ blood red blood cells (RBC). In words: In vitro haemolytic assay. The class given is cell-based, human. The note with it: 72 h, B+ blood. The method, then:
Fresh B+ blood was washed with RPMI1640 medium containing of 30 µg/mL gentamicin (Gibco) and centrifuged at 1000 xg for 10 min three times. The percentage of haemolysis was determined spectroscopically using 5% haematocrit containing test compound at increasing concentration and incubated for 72 h at 37 °C [19, 20]. Untreated blood acted as negative control while blood treated with sterile distilled water acted as positive control (for 100% haemolysis).

For the molecule `O.O=[N+]([O-])[O-].O=[N+]([O-])[O-].[Cu+2].c1cnc2c(c1)ccc1cccnc12.c1cnc2c(c1)ccc1cccnc12` [Complex 1, [Cu(phen)2](NO3)2·H2O], in series [1], the “Stability of aqueous solution (molar conductivity; for (1) also visible molar absorptivity)” value is given as “remains practically unchanged”. Besides, the “Mitochondrial membrane potential (Δψm)” value in series [2] (12 h, 1 µM) is 17.2 ± 12.8; in series [2] (12 h, 5 µM), 29.7 ± 12.1; in series [2] (12 h, 25 µM), 1.9 ± 1.1; in series [2] (48 h, 1 µM) it was 41.1 ± 5.1; in series [2] (48 h, 5 µM) it was 43.6 ± 15.0; in series [2] (48 h, 25 µM), 0.5 ± 0.3. Besides, the “Mitochondrial membrane potential (Δψm)” value in series [3] (12 h, 1 µM) is given as 18.9 ± 2.8; in series [3] (12 h, 5 µM), 17.5 ± 3.5; in series [3] (12 h, 25 µM) it was 1.1 ± 0.6; in series [3] (48 h, 1 µM), 10.4 ± 3.1; in series [3] (48 h, 5 µM), 6.0 ± 1.8; in series [3] (48 h, 25 µM), 1.2 ± 0.1. For the same molecule, the “Concentration of •OH radical” value in series [4] (2 h) is on record as 32.20 ± 2.93 µM; in series [4] (4 h), 34.36 ± 2.62 µM; in series [4] (24 h), 35.43 ± 1.22 µM; in series [4] (48 h) it was 32.19 ± 0.52 µM; in series [4] (72 h), 28.96 ± 0.38 µM. The “Percentage of haemolysis (haemolytic index, HI)” value in series [5] (1 µM) stood at 4%; in series [5] (5 µM), 80%; in series [5] (25 µM), 43%.
As to “[Cu(phen)(NO3)(H2O)-4,4′-bipy-Cu(phen)(NO3)(H2O)](NO3)2 [Complex 3]”, the “Mitochondrial membrane potential (Δψm)” value was 24.2 ± 1.6 in series [2] (12 h, 1 µM); 49.3 ± 23.8 in series [2] (12 h, 5 µM); 0.4 ± 0.2 in series [2] (12 h, 25 µM); 45.0 ± 26.4 in series [2] (48 h, 1 µM); 4.7 ± 2.6 in series [2] (48 h, 5 µM); 0.1 ± 0.04 in series [2] (48 h, 25 µM). Moreover, the “Mitochondrial membrane potential (Δψm)” value was found to be 17.5 ± 2.2 in series [3] (12 h, 1 µM); 16.6 ± 4.6 in series [3] (12 h, 5 µM); 0.5 ± 0.1 in series [3] (12 h, 25 µM); 19.2 ± 8.4 in series [3] (48 h, 1 µM); 0.6 ± 0.1 in series [3] (48 h, 5 µM); 0.1 ± 0.01 in series [3] (48 h, 25 µM). The “Concentration of •OH radical” value in series [4] (2 h) came to 21.13 ± 0.41 µM; in series [4] (4 h) it was 22.16 ± 0.36 µM; in series [4] (24 h) it was 23.51 ± 1.09 µM; in series [4] (48 h) it was 21.29 ± 1.67 µM; in series [4] (72 h) it was 18.89 ± 1.45 µM. Also, the “Percentage of haemolysis (haemolytic index, HI)” value is given as 35% in series [5] (1 µM), 96% in series [5] (5 µM) and 36% in series [5] (25 µM).
